Measurements from patent US8192962B2, “Processes for detecting toxic substances” (Daikin Industries, Ltd., priority 2001, dated 2012).

Tested on: Mitochondria-located protein genes
Test: DNA chip mRNA expression in yeast, mitochondria-located protein genes (Table 2)
Type: cell-based, Saccharomyces cerevisiae S288C
Settings: cells incubated two hours with the chemical substance
Summary of the method: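 First, S288C yeast grown in YPD at 25° C. are dosed in log phase with one toxicant (growth-inhibiting, not lethal) for 2 h. Next, total RNA is extracted and poly(A) mRNA isolated and reverse-transcribed with Cy3/Cy5-dUTP. Finally, whole-genome chip fluorescence is read relative to unexposed cells.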

Measured: The level of expressed mRNA in the presence of chemical substance/The level of expressed mRNA in the absence of chemical substance

CN(C)C(=S)SSC(=S)N(C)C [(10), Tetramethylthiuram disulfide]
1.0: yeast gene YNL055C | yeast gene YOR037W
0.6: yeast gene YDR529C | yeast gene YEL024W | yeast gene YGL187C | yeast gene YNL256W
3.0: yeast gene YJR045C
2.4: yeast gene YGR008C | yeast gene YHR008C | yeast gene YKR066C
1.7: yeast gene YKL148C | yeast gene YOR130C | yeast gene YPR024W
0.7: yeast gene YBL099W | yeast gene YGR174C | yeast gene YJR077C
2.0: yeast gene YGR028W | yeast gene YNL104C | yeast gene YOR316C
1.5: yeast gene YBL038W | yeast gene YML120C | yeast gene YOR142W
0.9: yeast gene YBL030C | yeast gene YBR282W | yeast gene YDL067C | yeast gene YDR377W | yeast gene YGR082W | yeast gene YLR038C | yeast gene YLR395C
2.8: yeast gene YPL135W
2.7: yeast gene YDL198C
2.6: yeast gene YLR259C | yeast gene YMR023C | yeast gene YOR020C | yeast gene YOR100C
1.2: yeast gene YBL022C | yeast gene YBR044C | yeast gene YEL039C | yeast gene YJL166W | yeast gene YLR295C | yeast gene YMR203W | yeast gene YNL071W | yeast gene YPL040C | yeast gene YPL215W
2.1: yeast gene YCL057W
2.9: yeast gene YFL016C | yeast gene YIL155C
1.9: yeast gene YPR047W
1.1: yeast gene YBR251W | yeast gene YGR244C | yeast gene YKL170W | yeast gene YMR083W
2.5: yeast gene YMR089C
2.2: yeast gene YAL039C | yeast gene YJL102W | yeast gene YKL003C | yeast gene YLR304C | yeast gene YML129C
1.6: yeast gene YBR091C | yeast gene YBR185C | yeast gene YDR298C | yeast gene YDR347W | yeast gene YMR035W
5.8: yeast gene YPL262W
5.9: yeast gene YKL142W
1.8: yeast gene YCR083W | yeast gene YGR076C | yeast gene YKL016C | yeast gene YML054C | yeast gene YNL073W | yeast gene YOR150W
0.8: yeast gene YDL181W | yeast gene YDR079W | yeast gene YDR178W | yeast gene YLL041C | yeast gene YMR267W | yeast gene YOR187W | yeast gene YPL134C
1.4: yeast gene YBR122C | yeast gene YCR046C | yeast gene YDR231C | yeast gene YGL018C | yeast gene YGR062C | yeast gene YJL096W | yeast gene YJL133W | yeast gene YJL180C | yeast gene YKL194C | yeast gene YOL096C
13.3: yeast gene YDR258C
0.5: yeast gene YKL141W | yeast gene YOR176W
2.3: yeast gene YPR134W
1.3: yeast gene YBR003W | yeast gene YBR221C | yeast gene YER178W | yeast gene YGL191W | yeast gene YJR121W | yeast gene YLR348C | yeast gene YMR152W | yeast gene YPR037C
